Blank lines part the entries; values can stand above or below the compound they belong to.
How the values were obtained:
Hepa-SC cells = conditions: 10 μM; cited from earlier work
HEPARG® cells = assay: Comparative study of epigenetic modulators for HEPARG reprogramming to Hepa-SC (toxicity in culture); type: cell-based, human; conditions: even at low concentration, in our culture conditions
Description: • Step 1: Culturing the parental cells in a culture medium that has been modified in order to eliminate all factors supporting differentiation processes during a 2-passage culture period; • Step 2: Inducing mechanical stress such as shape constraint, onto the cells in order to generate a reprogramming signal toward stemness that should be associated with occurrence of a mechano-transduction signaling in all the cells in a synchronized manner, resulting in expression of a “stem cell signature” at the genome level; • Step 3: Inducing the stability of this stem cell fate by epigenetic mechanism, for instance by exposing the cells to methylation/acetylation modulators such as HDAC molecules. Epigenetic modifications refer to mitotically heritable changes in gene expression that are not coded in the DNA sequence itself (Levenson J M, Sweatt J D., 2005). The chosen epigenetic molecule should neither alter cell proliferation activity nor provoke toxicity effects and/or apoptotic induction. 5-azacytidine inhibits DNA methylation. It has been preferentially chosen for HEPARG® reprogramming to Hepa-SC stem-like cells after comparative study with Bix 01294, a small molecule known to inhibit the histone H3 methylation. […]

Hepa-RP = assay: Cholestatic drug screening: alterations of bile saccular canaliculi in Hepa-RP; type: cell-based, human; conditions: Hepa-RP at passage 29 (10 passages with a corticoid-free medium)

Compound: Nc1ncn([C@H]2C[C@H](O)[C@@H](CO)O2)c(=O)n1 [5-aza-2′-deoxycytidine]
inhibition of cell proliferation (Hepa-SC cells): does not inhibit cell proliferation
visible cell toxicity (Hepa-SC cells): does not induce visible cell toxicity

Compound: COc1cc2nc(N3CCCN(C)CC3)nc(NC3CCN(Cc4ccccc4)CC3)c2cc1OC [Bix 01294]
toxicity compared with 5-azacytidine (HEPARG® cells): much more toxic

cholestatic effect on the bile saccular canaliculi (alteration) (Hepa-RP): constriction
Compound: CN(C)CCCN1c2ccccc2Sc2ccc(Cl)cc21 [Chlorpromazine]

induction of three distinct CYP450 enzymes activity (CYP450 enzymes): induced
Compound: C[S+](C)[O-] [DMSO]

cholestatic effect on the bile saccular canaliculi (alteration) (Hepa-RP): dilatation
Compound: O=S(=O)(c1cccc2cnccc12)N1CCCNCC1 [Fasudil]

— patent US9765300B2, “Hepatic cell lines and stem-like cells, methods of making and using the same” (priority 2014, dated 2017)
